These results are taken from US20250145665A1, “MACROCYCLIC PEPTIDES USEFUL AS MODULATORS OF TNF ALPHA” (Bristol-Myers Squibb Company, priority 2023, published 2025).

Starred links: 1 amine or outer side, 2 acyl side, 3 side chain; linkers in the order of their positions; H or OH if unused. Positions of bridges follow the written chain, without caps; N, C: chain ends. Non-standard residues stand in square brackets, D forms with d. Residues, ends and D or L forms follow the SMILES beside them. ξ: configuration not given here. *: point of attachment. Bip(4'-NHCO-C6H4-4-CH2COOH) = N[C@@H](Cc1ccc(-c2ccc(NC(=O)c3ccc(CC(=O)O)cc3)cc2)cc1)C(=O)O; X5 = Cn1nc(C(=O)Nc2ccc(-c3ccc(C[C@H](N[*:1])C(=O)[*:2])cc3)cc2)c2ccccc21; dArg(Nω-CH2C6H4-3-CH2Gua) = N=C(N)NCc1cccc(CNC(=N)NCCC[C@@H](N)C(=O)O)c1; Bip(4'-NH) = O=C([C@H](Cc1ccc(-c2ccc(N[*:3])cc2)cc1)N[*:1])[*:2]; Indazole3carbonyl(1-CH2COOH) = O=C(O)Cn1nc(C(=O)*)c2ccccc21; X72 = N=C(N)Nc1ccc(CCNC(=N)NCCC[C@@H](N[*:1])C(=O)[*:2])cc1; Bip(4'-COOH) = N[C@@H](Cc1ccc(-c2ccc(C(=O)O)cc2)cc1)C(=O)O; Bip(4'-NHAc) = CC(=O)Nc1ccc(-c2ccc(C[C@H](N)C(=O)O)cc2)cc1; X27 = N=C(NCCC[C@@H](N[*:1])C(=O)[*:2])NCCc1ccc2c(c1)OCO2; Ala(morpholin-4-yl) = N[C@@H](CN1CCOCC1)C(=O)O; X12 = N=C(NCCO)NCCC[C@@H](N[*:1])C(=O)[*:2]; Bip = N[C@@H](Cc1ccc(-c2ccccc2)cc1)C(=O)O; Phe(2-F) = N[C@@H](Cc1ccccc1F)C(=O)O; X48 = CC(C)(O)Cn1nc(C(=O)*)c2ccccc21; Val(3-OH) = CC(C)(O)[C@H](N)C(=O)O; h4Pal = N[C@@H](CCc1ccncc1)C(=O)O; X57 = Cn1c(C(=O)*)cc2c(Cl)cccc21; Cha = N[C@@H](CC1CCCCC1)C(=O)O; ξE = NC(CCC(=O)O)C(=O)O; Sar = CNCC(=O)O

The target in the first assay is TNFα (Homo sapiens, UniProt P01375). The experiment in a line: TNF-Induced HEK-Blue Assay. It is filed as cell-based.
Sequence of TNFα (P01375 77-233 limits assumed): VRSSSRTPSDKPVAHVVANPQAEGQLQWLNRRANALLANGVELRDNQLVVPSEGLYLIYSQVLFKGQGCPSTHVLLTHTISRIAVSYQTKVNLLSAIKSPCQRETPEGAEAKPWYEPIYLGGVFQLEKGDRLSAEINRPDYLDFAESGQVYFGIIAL
Settings: not given
The term IC50 denotes the concentration at which inhibition is half-maximal. Consider `CC(C)C[C@@H]1NC(=O)[C@H](CCCNC(=N)N)NC(=O)[C@H](C(C)C)NC(=O)[C@@H]2CCCN2C(=O)[C@H](C(C)C)NC(=O)[C@@H](CCCNC(=N)NCCO)NC(=O)[C@H](CC(=O)O)NC(=O)[C@@H]2CCCN2C(=O)CN(C)C(=O)[C@H](Cc2ccc(-c3ccc(NC(=O)c4nn(CC(=O)O)c5ccccc45)cc3)cc2)NC(=O)[C@H](Cc2ccc(-c3ccccc3)cc2)NC(=O)[C@H](CN2CCOCC2)NC(=O)CSC[C@@H](C(=O)NCC(N)=O)NC1=O` [Example 387] ({CH2CO}-[Ala(morpholin-4-yl)][Bip][Bip(4'-NH)](Indazole3carbonyl(1-CH2COOH))[Sar]PD[X12]VPVRLCG-NH2; thioether N-13), for which the IC50 is less than 50 nM.
Same read-out and setting: next, `CC(C)C[C@@H]1NC(=O)[C@H](CCCNC(=N)N)NC(=O)[C@H](C(C)C)NC(=O)[C@@H]2CCCN2C(=O)[C@H](C(C)C)NC(=O)[C@@H](CCCNC(=N)N)NC(=O)[C@H](CC(=O)O)NC(=O)[C@@H]2CCCN2C(=O)CN(C)C(=O)[C@H](Cc2ccc(-c3ccc(NC(=O)c4nn(CC(C)(C)O)c5ccccc45)cc3)cc2)NC(=O)[C@H](Cc2ccc(-c3ccccc3)cc2)NC(=O)[C@H](CN2CCOCC2)NC(=O)CSC[C@@H](C(=O)NCC(N)=O)NC1=O` [Example 355] ({CH2CO}-[Ala(morpholin-4-yl)][Bip][Bip(4'-NH)](X48)[Sar]PD[dR]VPVRLCG-NH2; thioether N-13): less than 50 nM; `CC(C)C[C@@H]1NC(=O)[C@H](CCCNC(=N)N)NC(=O)[C@H](C(C)C)NC(=O)[C@@H]2CCCN2C(=O)[C@H](C(C)C)NC(=O)[C@@H](CCCNC(=N)NCCc2ccc3c(c2)OCO3)NC(=O)[C@H](CC(=O)O)NC(=O)[C@@H]2CCCN2C(=O)CN(C)C(=O)[C@H](Cc2ccc(-c3ccc(NC(=O)c4nn(CC(=O)O)c5ccccc45)cc3)cc2)NC(=O)[C@H](Cc2ccc(-c3ccc(C(=O)O)cc3)cc2)NC(=O)[C@H](CN2CCOCC2)NC(=O)CSC[C@@H](C(=O)NCC(N)=O)NC1=O` [Example 409] ({CH2CO}-[Ala(morpholin-4-yl)][Bip(4'-COOH)][Bip(4'-NH)](Indazole3carbonyl(1-CH2COOH))[Sar]PD[X27]VPVRLCG-NH2; thioether N-13): 50 to 200 nM.

Still in this assay, the particulars now being: HEK-Blue-CD40L cells, NF-kB-driven secreted alkaline phosphatase reporter; TNFα 0.5 ng/ml; 18 h; read-out: TNF induced HEK-Blue assay IC50 value.
For `CC(C)C[C@@H]1NC(=O)[C@H](CCc2ccncc2)NC(=O)[C@H](C(C)C)NC(=O)[C@@H]2CCCN2C(=O)[C@H](C(C)C)NC(=O)[C@@H](CCCNC(=N)N)NC(=O)[C@H](CC(=O)O)NC(=O)[C@H](Cc2ccc(O)cc2)NC(=O)CN(C)C(=O)[C@H](Cc2ccc(-c3ccccc3)cc2)NC(=O)[C@H](Cc2ccc(-c3ccccc3)cc2)NC(=O)[C@H](CN2CCOCC2)NC(=O)CSC[C@@H](C(=O)NCC(N)=O)NC1=O` [Example 155] ({CH2CO}-[Ala(morpholin-4-yl)][Bip][Bip][Sar]YD[dR]VPV[h4Pal]LCG-NH2; thioether N-13), the IC50 is less than 50 nM.
Consider `CC(C)C[C@@H]1NC(=O)[C@H](CCCNC(=N)N)NC(=O)[C@H](C(C)C)NC(=O)[C@@H]2CCCN2C(=O)[C@H](C(C)C)NC(=O)[C@@H](CCCNC(=N)NCCc2ccc(NC(=N)N)cc2)NC(=O)[C@H](CC(=O)O)NC(=O)[C@@H]2CCCN2C(=O)CN(C)C(=O)[C@H](Cc2ccc(-c3ccc(NC(=O)c4nn(C)c5ccccc45)cc3)cc2)NC(=O)[C@H](Cc2ccc(-c3ccccc3)cc2)NC(=O)[C@H](CN2CCOCC2)NC(=O)CSC[C@@H](C(=O)NCC(N)=O)NC1=O` [Example 439] ({CH2CO}-[Ala(morpholin-4-yl)][Bip][X5][Sar]PD[X72]VPVRLCG-NH2; thioether N-13), for which the IC50 was in the range of 50 to 200 nM.
Still for that read-out and setting: next, `CC(C)C[C@@H]1NC(=O)[C@H](CCCNC(=N)N)NC(=O)[C@H](C(C)C)NC(=O)[C@@H]2CCCN2C(=O)[C@H](C(C)C)NC(=O)[C@@H](CCCNC(=N)NCc2cccc(CNC(=N)N)c2)NC(=O)[C@H](CC(=O)O)NC(=O)[C@@H]2CCCN2C(=O)CN(C)C(=O)[C@H](Cc2ccc(-c3ccc(NC(=O)c4ccc(CC(=O)O)cc4)cc3)cc2)NC(=O)[C@H](Cc2ccc(-c3ccccc3)cc2)NC(=O)[C@H](CN2CCOCC2)NC(=O)CSC[C@@H](C(=O)NCC(N)=O)NC1=O` [Example 571] ({CH2CO}-[Ala(morpholin-4-yl)][Bip][Bip(4'-NHCO-C6H4-4-CH2COOH)][Sar]PD[dArg(Nω-CH2C6H4-3-CH2Gua)]VPVRLCG-NH2; thioether N-13): 50 to 200 nM.
With `CC(C)C[C@@H]1NC(=O)[C@H](Cc2ccc(O)cc2)NC(=O)[C@H](C(C)C)NC(=O)[C@@H]2CCCN2C(=O)[C@H](Cc2ccc(O)cc2)NC(=O)[C@H](CCCNC(=N)N)NC(=O)[C@H](CC(=O)O)NC(=O)[C@H](Cc2ccc(O)cc2)NC(=O)CN(C)C(=O)[C@H](Cc2ccc(-c3ccccc3)cc2)NC(=O)[C@H](Cc2ccc(-c3ccccc3)cc2)NC(=O)[C@H](C(C)(C)O)NC(=O)CSC[C@@H](C(=O)NCC(N)=O)NC1=O` [Example 110] ({CH2CO}-[Val(3-OH)][Bip][Bip][Sar]YDRYPVYLCG-NH2; thioether N-13), the IC50 was 50 to 200 nM.
Consider `CC(C)C[C@@H]1NC(=O)[C@H](CCCNC(=N)N)NC(=O)[C@H](C(C)C)NC(=O)[C@@H]2CCCN2C(=O)[C@H](C(C)C)NC(=O)[C@@H](CCCNC(=N)N)NC(=O)[C@H](CC(=O)O)NC(=O)[C@@H]2CCCN2C(=O)CNC(=O)[C@H](Cc2ccc(-c3ccccc3)cc2)NC(=O)[C@H](Cc2ccc(-c3ccccc3)cc2)NC(=O)[C@H](CN2CCOCC2)NC(=O)CSC[C@@H](C(=O)NCC(N)=O)NC1=O` [Example 130] ({CH2CO}-[Ala(morpholin-4-yl)][Bip][Bip]GPD[dR]VPVRLCG-NH2; thioether N-13), for which the IC50 fell in the range of 200 to 2000 nM.
For the compound `CC(=O)Nc1ccc(-c2ccc(C[C@@H]3NC(=O)[C@H](Cc4ccc(-c5ccccc5)cc4)NC(=O)[C@H](CC4CCCCC4)NC(=O)CSC[C@@H](C(=O)NC(CCC(=O)O)C(N)=O)NC(=O)[C@H](CC(C)C)NC(=O)[C@H](Cc4ccc(O)cc4)NC(=O)[C@H](C(C)C)NC(=O)[C@@H]4CCCN4C(=O)[C@H](C(C)C)NC(=O)[C@@H](CCCNC(=N)N)NC(=O)[C@H](CC(=O)O)NC(=O)[C@@H]4CCCN4C(=O)CN(C)C3=O)cc2)cc1` (some centres unmarked) [Example 321] ({CH2CO}-[Cha][Bip][Bip(4'-NHAc)][Sar]PD[dR]VPVYLC[ξE]-NH2; thioether N-13), the concentration for half-maximal inhibition (IC50) lay within 50 to 200 nM.
On the same count and under the same terms, next, `CC[C@H](C)[C@@H]1NC(=O)[C@@H](CCCNC(=N)N)NC(=O)[C@H](CC(=O)O)NC(=O)[C@H](Cc2cnc[nH]2)NC(=O)CN(C)C(=O)[C@H](Cc2ccc(-c3ccc(NC(=O)c4cc5c(Cl)cccc5n4C)cc3)cc2)NC(=O)[C@H](Cc2ccc(-c3ccccc3)cc2)NC(=O)[C@H](CC2CCCCC2)NC(=O)CSC[C@@H](C(=O)NCC(N)=O)NC(=O)[C@H](CC(C)C)NC(=O)[C@H](Cc2cnc[nH]2)NC(=O)[C@H](C(C)C)NC(=O)[C@@H]2CCCN2C1=O` [Example 319] ({CH2CO}-[Cha][Bip][Bip(4'-NH)](X57)[Sar]HD[dR]IPVHLCG-NH2; thioether N-13): 50 to 200 nM.
On to `CC(C)C[C@@H]1NC(=O)[C@H](CCCNC(=N)N)NC(=O)[C@H](C(C)C)NC(=O)[C@@H]2CCCN2C(=O)[C@H](Cc2ccccc2F)NC(=O)[C@H](CCCNC(=N)N)NC(=O)[C@H](CC(=O)O)NC(=O)[C@@H]2CCCN2C(=O)CN(C)C(=O)[C@H](Cc2ccc(-c3ccccc3)cc2)NC(=O)[C@H](Cc2ccc(-c3ccccc3)cc2)NC(=O)[C@H](CN2CCOCC2)NC(=O)CSC[C@@H](C(=O)NCC(N)=O)NC1=O` [Example 53] ({CH2CO}-[Ala(morpholin-4-yl)][Bip][Bip][Sar]PDR[Phe(2-F)]PVRLCG-NH2; thioether N-13), for which the IC50 fell in the range of 200 to 2000 nM.
